Laboratory results published in patent US20220395472A1 (Dermavant Sciences GmbH, priority 2021, published 2022).

Tested on: adults with plaque psoriasis
Test: Long-term open-label extension study (PSOARING 3): Physician Global Assessment (PGA), treatment episodes, treatment success, remittive effect
Assay type: in vivo, human
Method: This extension study consisted of up to 40 weeks of treatment and a 4 week, safety follow up period.
At the completion of the Week 12 visit of the DB, pivotal Phase 3 study, eligibility of the subjects opting to enroll in this extension study was confirmed. Study visits during the treatment period for all subjects occurred every 4 weeks (±3 days). A phone call was performed at Week 2 (Day 15). Unscheduled visits may have occurred, as needed. Subjects who withdrew from this study before Week 40 returned to the study center for an Early Termination visit. The total duration of this extension study participation was 44 weeks. Subjects in this study were treated as follows based on their PGA score from the Week 12 visit in the DB, pivotal Phase 3 study (Study DMVT 505 3001 or Study DMVT 505 3002).
The PGA was used to assess the primary efficacy endpoint in this study. The PGA is a clinical tool for assessing the current state/severity of a subject's psoriasis at a given time point. It is a static, 5 point, morphological assessment of overall disease severity, as determined by the Investigator, using the clinical characteristics of erythema, scaling, and plaque thickness/elevation as guidelines; higher PGA scores represent more severe disease (0=clear, 1=almost clear, 2=mild, 3=moderate, and 4=severe). The BSA affected was not considered in scoring of the PGA. Variations of the PGA are frequently used in clinical studies because it is a simple assessment, similar to those used in clinical practice. The PGA was performed first, prior to the % BSA, PASI, and LTS assessments.
Time to event parameters, such as the time from treatment success to subsequent worsening (PGA≥2) or duration of treatment episode, were summarized by the Kaplan Meier product limit method using OC.

[1] = Baseline PGA = 2, Tapinarof (Pivotal) group
[2] = Baseline PGA = 2, Vehicle (Pivotal) group
[3] = Baseline PGA = 3, Tapinarof (Pivotal) group

What does the source list for `CC(C)c1c(O)cc(/C=C/c2ccccc2)cc1O` [Tapinarof, 3,5-Dihydroxy-4-isopropyl-trans-stilbene]?
Duration of 1st Success, Mean (SD) [1]: 81.3 (71.03) days; Duration of 1st Success, Median [1]: 57.0 days; Duration of 2nd Episode, Mean (SD) [1]: 78.2 (54.89) days; Duration of 2nd Episode, Median [1]: 84.5 days; Duration of 2nd Success, Mean (SD) [1]: 27.3 (30.06) days; Duration of 2nd Success, Median [1]: 25.0 days; Duration of 3rd Episode, Mean (SD) [1]: 1.0 (NE) days; Duration of 3rd Episode, Median [1]: 1.0 days; Duration of Last Episode, Mean (SD) [1]: 175.4 (98.91) days; Duration of Last Episode, Median [1]: 197.0 days; Duration of Last Success, Mean (SD) [1]: 76.1 (72.82) days; Duration of Last Success, Median [1]: 56.0 days; Total Duration of Treatment Episodes, Mean (SD) [1]: 190.1 (90.58) days; Total Duration of Treatment Episodes, Median [1]: 223.0 days; Total Duration of Treatment Success, Mean (SD) [1]: 84.6 (71.17) days; Total Duration of Treatment Success, Median [1]: 78.0 days; Average Duration of Episodes, Mean (SD) [2]: 169.8 (89.68) days; Average Duration of Episodes, Median [2]: 194.0 days; Average Duration of Treatment Success, Mean (SD) [2]: 94.6 (65.57) days; Average Duration of Treatment Success, Median [2]: 87.0 days; Duration of 1st Episode, Mean (SD) [2]: 173.2 (86.28) days; Duration of 1st Episode, Median [2]: 194.0 days; Duration of 1st Success, Mean (SD) [2]: 110.8 (72.69) days; Duration of 1st Success, Median [2]: 115.5 days; Duration of 2nd Episode, Mean (SD) [2]: 46.0 (42.39) days; Duration of 2nd Episode, Median [2]: 27.0 days; Duration of 2nd Success, Mean (SD) [2]: 34.7 (51.14) days; Duration of 2nd Success, Median [2]: 27.5 days; Duration of 3rd Episode, Mean (SD) [2]: 42.5 (19.09) days; Duration of 3rd Episode, Median [2]: 42.5 days; Duration of 3rd Success, Mean (SD) [2]: 29.0 (NE) days; Duration of 3rd Success, Median [2]: 29.0 days; Duration of Last Episode, Mean (SD) [2]: 166.2 (95.09) days; Duration of Last Episode, Median [2]: 194.0 days; Duration of Last Success, Mean (SD) [2]: 79.8 (77.74) days; Duration of Last Success, Median [2]: 44.5 days; Total Duration of Treatment Episodes, Mean (SD) [2]: 184.6 (78.19) days; Total Duration of Treatment Episodes, Median [2]: 196.5 days; Total Duration of Treatment Success, Mean (SD) [2]: 127.9 (73.01) days; Total Duration of Treatment Success, Median [2]: 136.5 days; Average Duration of Episodes, Mean (SD) (Baseline PGA = 3, Overall): 178.0 (94.87) days; Average Duration of Episodes, Median (Baseline PGA = 3, Overall): 197.0 days; Average Duration of Treatment Success, Mean (SD) (Baseline PGA = 3, Overall): 66.4 (56.88) days; Average Duration of Treatment Success, Median (Baseline PGA = 3, Overall): 51.0 days; Duration of 1st Episode, Median (Baseline PGA = 3, Overall): 197.0 days; Duration of 1st Success, Mean (SD) (Baseline PGA = 3, Overall): 68.8 (57.40) days; Duration of 1st Success, Median (Baseline PGA = 3, Overall): 56.0 days; Duration of 2nd Episode, Mean (SD) (Baseline PGA = 3, Overall): 58.8 (46.15) days; Duration of 2nd Episode, Median (Baseline PGA = 3, Overall): 55.0 days; Duration of 2nd Success, Mean (SD) (Baseline PGA = 3, Overall): 31.5 (19.15) days; Duration of 2nd Success, Median (Baseline PGA = 3, Overall): 28.5 days; Duration of 3rd Episode, Mean (SD) (Baseline PGA = 3, Overall): 55.2 (27.44) days; Duration of 3rd Episode, Median (Baseline PGA = 3, Overall): 57.0 days; Duration of 3rd Success, Mean (SD) (Baseline PGA = 3, Overall): 28.0 (NE) days; Duration of 3rd Success, Median (Baseline PGA = 3, Overall): 28.0 days; Duration of 4th Episode, Mean (SD) (Baseline PGA = 3, Overall): 1.0 (NE) days; Duration of 4th Episode, Median (Baseline PGA = 3, Overall): 1.0 days; Duration of Last Episode, Mean (SD) (Baseline PGA = 3, Overall): 175.4 (98.29) days; Duration of Last Episode, Median (Baseline PGA = 3, Overall): 197.0 days; Duration of Last Success, Mean (SD) (Baseline PGA = 3, Overall): 64.1 (58.23) days; Duration of Last Success, Median (Baseline PGA = 3, Overall): 51.0 days; Total Duration of Treatment Episodes, Mean (SD) (Baseline PGA = 3, Overall): 187.9 (90.62) days; Total Duration of Treatment Episodes, Median (Baseline PGA = 3, Overall): 198.0 days; Total Duration of Treatment Success, Mean (SD) (Baseline PGA = 3, Overall): 75.5 (57.18) days; Total Duration of Treatment Success, Median (Baseline PGA = 3, Overall): 64.0 days; Average Duration of Episodes, Mean (SD) [3]: 184.7 (96.36) days; Average Duration of Episodes, Median [3]: 198.0 days; Average Duration of Treatment Success, Mean (SD) [3]: 63.9 (54.43) days; Average Duration of Treatment Success, Median [3]: 48.3 days; Duration of 1st Episode, Mean (SD) [3]: 187.1 (95.90) days; Duration of 1st Episode, Median [3]: 198.0 days; Duration of 1st Success, Mean (SD) [3]: 62.6 (55.19) days; Duration of 1st Success, Median [3]: 43.0 days; Duration of 2nd Episode, Mean (SD) [3]: 68.2 (77.66) days; Duration of 2nd Episode, Median [3]: 30.0 days; Duration of 2nd Success, Mean (SD) [3]: 57.0 (NE) days; Duration of 2nd Success, Median [3]: 57.0 days; Duration of Last Episode, Mean (SD) [3]: 182.2 (99.93) days; Duration of Last Episode, Median [3]: 198.0 days; Duration of Last Success, Mean (SD) [3]: 65.2 (54.03) days; Duration of Last Success, Median [3]: 56.0 days; Total Duration of Treatment Episodes, Mean (SD) [3]: 190.8 (95.50) days; Total Duration of Treatment Episodes, Median [3]: 200.0 days
